Measurements reported in article PMC8079033, “Design, synthesis, anticancer evaluation, and molecular modelling studies of novel tolmetin derivatives as potential VEGFR-2 inhibitors and apoptosis inducers” (Journal of Enzyme Inhibition and Medicinal Chemistry, 2021).

Key:
Assay in all cases: NCI 60-cell line one-dose antiproliferative screen (SRB)
Type in all cases: cell-based
SF-268 = conditions: Homo sapiens, read-out: growth inhibition % (GI%)
In short: (§1)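 A 48 h, 10 µM exposure is scored by SRB protein dye. Percent growth accounts for starting cell density, allowing lethality as well as cytostasis to be detected.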

NCI-H522 = conditions: Homo sapiens, read-out: growth inhibition % (GI%)
In short: as §1

CCRF-CEM = conditions: Homo sapiens, read-out: growth inhibition % (GI%)
In short: as §1

SNB-75 = conditions: Homo sapiens, read-out: growth inhibition % (GI%)
In short: as §1

786-0 = conditions: Homo sapiens, read-out: growth inhibition % (GI%)
In short: as §1

OVCAR-8 = conditions: Homo sapiens, read-out: growth inhibition % (GI%)
In short: as §1

MCF7 = conditions: Homo sapiens, read-out: growth inhibition % (GI%)
In short: as §1

SF-539 = conditions: Homo sapiens, read-out: growth inhibition % (GI%)
In short: as §1

IGROV1 = conditions: Homo sapiens, IGROV-1, read-out: growth inhibition % (GI%)
In short: as §1

CAKI-1 = conditions: Homo sapiens, read-out: growth inhibition % (GI%)
In short: as §1

EKVX = conditions: Homo sapiens, read-out: growth inhibition % (GI%)
In short: as §1

RPMI-8226 = conditions: Homo sapiens, read-out: growth inhibition % (GI%)
In short: as §1

M14 = conditions: Homo sapiens, read-out: growth inhibition % (GI%)
In short: as §1

PC-3 = conditions: Homo sapiens, read-out: growth inhibition % (GI%)
In short: as §1

SK-MEL-5 = conditions: Homo sapiens, read-out: growth inhibition % (GI%)
In short: as §1

T-47D = conditions: Homo sapiens, T47D, read-out: growth inhibition % (GI%)
In short: as §1

UACC-62 = conditions: Homo sapiens, read-out: growth inhibition % (GI%)
In short: as §1

NCI/ADR-RES = conditions: Homo sapiens, read-out: growth inhibition % (GI%)
In short: as §1

U251 = conditions: Homo sapiens, U-251, read-out: growth inhibition % (GI%)
In short: as §1

OVCAR-4 = conditions: Homo sapiens, read-out: growth inhibition % (GI%)
In short: as §1

K-562 = conditions: Homo sapiens, K562, read-out: growth inhibition % (GI%)
In short: as §1

HCT-15 = conditions: Homo sapiens, read-out: growth inhibition % (GI%)
In short: as §1

NCI-H322M = conditions: Homo sapiens, read-out: growth inhibition % (GI%)
In short: as §1

NCI-H23 = conditions: Homo sapiens, read-out: growth inhibition % (GI%)
In short: as §1

UO-31 = conditions: Homo sapiens, read-out: growth inhibition % (GI%)
In short: as §1

NCI-H226 = conditions: Homo sapiens, read-out: growth inhibition % (GI%)
In short: as §1

HOP-62 = conditions: Homo sapiens, read-out: growth inhibition % (GI%)
In short: as §1

A549/ATCC = conditions: Homo sapiens, read-out: growth inhibition % (GI%)
In short: as §1

RXF 393 = conditions: Homo sapiens, read-out: growth inhibition % (GI%)
In short: as §1

MDA-MB-468 = conditions: Homo sapiens, read-out: growth inhibition % (GI%)
In short: as §1

HCT-116 = conditions: Homo sapiens, read-out: growth inhibition % (GI%)
In short: as §1

SN 12 C = conditions: Homo sapiens, SN12C, read-out: growth inhibition % (GI%)
In short: as §1

MDA-MB-231/ATCC = conditions: Homo sapiens, read-out: growth inhibition % (GI%)
In short: as §1

SMILES	inhibition at 10 µM (SF-268) [%]	inhibition at 10 µM (NCI-H522) [%]	inhibition at 10 µM (CCRF-CEM) [%]	inhibition at 10 µM (SNB-75) [%]	inhibition at 10 µM (786-0) [%]	inhibition at 10 µM (OVCAR-8) [%]	inhibition at 10 µM (MCF7) [%]	inhibition at 10 µM (SF-539) [%]	inhibition at 10 µM (IGROV1) [%]	inhibition at 10 µM (CAKI-1) [%]	inhibition at 10 µM (EKVX) [%]	inhibition at 10 µM (RPMI-8226) [%]	inhibition at 10 µM (M14) [%]	inhibition at 10 µM (PC-3) [%]	inhibition at 10 µM (SK-MEL-5) [%]	inhibition at 10 µM (T-47D) [%]	inhibition at 10 µM (UACC-62) [%]	inhibition at 10 µM (NCI/ADR-RES) [%]	inhibition at 10 µM (U251) [%]	inhibition at 10 µM (OVCAR-4) [%]	also measured
Cc1ccc(C(=O)c2ccc(CC(=O)NN=Cc3ccc(O)cc3O)n2C)cc1 [Compound 5c, N′-(2,4-Dihydroxybenzylidene)-2–(1-methyl-5–(4-methylbenzoyl)-1H-pyrrol-2-yl) acetohydrazide]	62.7	44.5	83.2	68.9	56.6	51.6	60.8	55.6	58.3	53.4	65.8	51.6	71.2	38.9	60.7	49.8	70.2	65.4	62.4	79.3	inhibition at 10 µM (K-562): 55.1%; inhibition at 10 µM (HCT-15): 83.2%; inhibition at 10 µM (NCI-H322M): 62%; inhibition at 10 µM (NCI-H23): 57.6%; inhibition at 10 µM (UO-31): 80.2%; inhibition at 10 µM (NCI-H226): 34.3%; inhibition at 10 µM (HOP-62): 59.4%; inhibition at 10 µM (A549/ATCC): 53.4%; inhibition at 10 µM (RXF 393): 50.3%; inhibition at 10 µM (MDA-MB-468): 53.2%; inhibition at 10 µM (HCT-116): 65.1%; inhibition at 10 µM (SN 12 C): 44.3%; inhibition at 10 µM (MDA-MB-231/ATCC): 48.6%
Cc1ccc(C(=O)c2ccc(CC(=O)NN=Cc3c[nH]c4ccccc34)n2C)cc1 [Compound 5f, N′-((1H-Indol-3-yl)methylene)-2–(1-methyl-5–(4-methylbenzoyl)-1H-pyrrol-2-yl) acetohydrazide]	10.5	18.7	24.6	25.5	< 10	< 10	27	< 10	15.2	17	17.7	15.9	< 10	< 10	< 10	22.1	12.2	< 10	10.4	11.1	inhibition at 10 µM (K-562): < 10%; inhibition at 10 µM (HCT-15): 16.8%; inhibition at 10 µM (NCI-H322M): < 10%; inhibition at 10 µM (NCI-H23): < 10%; inhibition at 10 µM (UO-31): 32.8%; inhibition at 10 µM (NCI-H226): < 10%; inhibition at 10 µM (HOP-62): < 10%; inhibition at 10 µM (A549/ATCC): 15.4%; inhibition at 10 µM (RXF 393): < 10%; inhibition at 10 µM (MDA-MB-468): 16.8%; inhibition at 10 µM (HCT-116): < 10%; inhibition at 10 µM (SN 12 C): < 10%; inhibition at 10 µM (MDA-MB-231/ATCC): 12.4%
